Consider 8 compounds from patent US20250057764A1, “COMPOSITIONS, METHODS AND SYSTEMS FOR AEROSOL DRUG DELIVERY” (ASTRAZENECA AB, priority 2021, published 2025).

SMILES strings stand for the structures. Structures can show the parent of a compound that is named as a salt. Where two headings read alike, the source gives them in different places.

Data set [1] in a line: Particle size distribution by laser diffraction. Type of data set: physicochemical. From the text:
When referred to herein, the term “optical diameter” indicates the size of a particle as measured by the Fraunhofer diffraction mode using a laser diffraction particle size analyzer equipped with a dry powder dispenser (e.g., Sympatec GmbH, Clasthal-Zellerfeld, Germany).
Suspending particles were manufactured by spray drying an emulsion of PFOB (perfluorooctyl bromide) and water stabilized by DSPC (1,2-Distearoyl-sn-Glycero-3-Phosphocholine). Detailed preparation procedures have been documented previously. The particle size distribution of the suspending particles was determined by laser diffraction.
Active agent particles formed of budesonide, 16,17-(butylidenebis(oxy))-11,21-dihydroxy-, (11-β,16-α)-pregna-1,4-diene-3,20-dione, were formed by micronizing budesonide using a jet mill. The particle size distribution of the budesonide (BD) was determined by laser diffraction.

Data set [2] in a line: Aerodynamic particle size distribution by NGI (FPF, FPD, MMAD) of HFC-152a co-suspension MDIs. Type of data set: physicochemical. The source says:
(§1) In the context of a composition containing or providing respirable aggregates, particles, drops, etc., such as compositions described herein, the term “fine particle dose” or “FPD” refers to the dose, either in total mass or fraction of the nominal dose or metered dose, that is within a respirable range. The dose that is within the respirable range in measured in vitro to be the sum of the dose delivered at stages 3 through Micro Orifice Collector in a Next Generation Impactor operated at a flow rate of 30 l/min.
(§2) In the context of a composition containing or providing respirable aggregates, particles, drops, etc., such as compositions described herein, the term “fine particle fraction” or “FPF” refers to the proportion of the delivered material relative to the delivered dose (i.e. the amount that exits the actuator of a delivery device, such as an MDI) that is within a respirable range. The amount of delivered material within the respirable range is measured in vitro as the sum of the material delivered at stages 3 through Micro Orifice Collector in a Next Generation Impactor operated at a flow rate of 30 l/min.
The mixture is agitated to facilitate powder wetting and then transferred to a pressure vessel where the suspension is mixed. Valves comprised of 50 uL metering chambers (BK357, Bespak, King's Lynn, UK) are crimped onto fluorinated ethylene polymer (FEP) coated aluminum cans (Presspart, Blackburn, UK) and the suspension is then pressure filled through the valve.
Metered dose inhalers containing a triple co-suspension composition comprising glycopyrrolate, budesonide, and formoterol active agent particles were prepared, with each type of active agent particle being provided as a micronized, crystalline API material.

Data set [3] in a line: Aerodynamic particle size distribution by NGI after storage of the MDI (stability). Particulars: active in BGF-152a. Type of data set: physicochemical.
Source text: as §1, §2
The fine particle fraction (FPF) present in the delivered dose upon actuation of an MDI containing budesonide, formoterol, or glycopyrrolate active agent particles and phospholipid particles was measured following storage of the MDI under various temperature and relative humidity conditions for varied periods of time. […]

For data set [4] the following is noted: cited from earlier work; for Latent Heat @ Boiling Point: at boiling point.
[5] abbreviates: active in BGF-152a MDI, Example 2.

As to `COc1ccc(CC(C)NCC(O)c2ccc(O)c(NC=O)c2)cc1.O=C(O)/C=C/C(=O)O` (racemic) [FF, (±)-2-hydroxy-5-[(1RS)-1-hydroxy-2-[[(1RS)-2-(4-methoxyphenyl)-1-methylethyl]-amino]ethyl]formanilide fumarate], in data set [1], the “Optical diameter / size of 50% by volume of the particles (smaller than)” value is reported as “smaller than 1.6 μm” and the “Optical diameter / size of 90% by volume of the particles (smaller than)” value is recorded as “smaller than 3.9 μm”.
With `CC(C)(C)NCC(O)c1ccc(O)c(CO)c1` (stereo not drawn) [AB, α1 [(tert-butylamino)methyl]-4-hydroxy-m xylene-α,α′-diol sulfate], in data set [1], the “Optical diameter / size of 50% by volume of the particles (smaller than)” value is “smaller than 1.5 μm” and the “Optical diameter / size of 90% by volume of the particles (smaller than)” value is given as “smaller than 3.3 μm”. In data set [2] (active in BDA-152a MDI), the “FPD, <6.4 μm (μg/act)” value is 28.68 ± 0.61 μg/act; the “FPF, <6.4 μm (%)” value came out at 31 ± 1%; the “MMAD (μm)” value is on record as 4.36 ± 0.06 μm.
Turning to `C[N+]1(C)CCC(OC(=O)C(O)(c2ccccc2)C2CCCC2)C1.[Br-]` (centres unmarked) [GP, Pyrrolidinium, 3-((cyclopentylhydroxyphenylacetyl)oxy)-1,1-dimethyl-, bromide], the “FPD, <6.4 μm (μg/act)” value in data set [3] (1 month 25° C./60% RH) worked out at 3.02 ± 0.08 μg/act; in data set [3] (1 month 40° C./75% RH) it was 3.18 ± 0.15 μg/act; in data set [3] (3 month 25° C./60% RH), 3.42 ± 0.08 μg/act; in data set [3] (3 month 40° C./75% RH), 3.62 ± 0.08 μg/act; in data set [3] (6 month 25° C./60% RH), 3.50 ± 0.07 μg/act; in data set [3] (6 month 40° C./75% RH) it was 3.44 ± 0.27 μg/act. For the same compound, the “FPD, <6.4 μm (μg/act)” value in data set [3] (12 month 25° C./60% RH) is recorded as 3.46 ± 0.05 μg/act; in data set [3] (Initial), 3.18 ± 0.16 μg/act; in data set [2] (setting [5]), 3.69 ± 0.36 μg/act; in data set [2] (active in GFF-152a MDI) it was 3.56 ± 0.18 μg/act. Also, the “FPF, <6.4 μm (%)” value in data set [3] (1 month 25° C./60% RH) is 45 ± 1%; in data set [3] (1 month 40° C./75% RH) it was 46 ± 1%; in data set [3] (3 month 25° C./60% RH), 49 ± 1%; in data set [3] (3 month 40° C./75% RH), 50 ± 1%; in data set [3] (6 month 25° C./60% RH), 50 ± 1%; in data set [3] (6 month 40° C./75% RH) it was 49 ± 2%. Moreover, the “FPF, <6.4 μm (%)” value in data set [3] (12 month 25° C./60% RH) was 48 ± 2%; in data set [3] (Initial), 47 ± 2%; in data set [2] (setting [5]) it was 49 ± 3%; in data set [2] (active in GFF-152a MDI), 48 ± 1%. Also, the “Optical diameter / size of 50% by volume of the particles (smaller than)” value in data set [1] is reported as “smaller than 2.1 μm”. Also, the “Optical diameter / size of 90% by volume of the particles (smaller than)” value in data set [1] is given as “smaller than 5 μm”. Also, the “MMAD (μm)” value in data set [2] (active in GFF-152a MDI) worked out at 3.43 ± 0.07 μm.
For `FCC(F)(F)F` [HFA-134a, 1,1,1,2-tetrafluoroethane], in data set [4], the “Liquid Density @ 20° C.” value is recorded as 1.23 g/mL, the “Liquid Viscosity @ 20° C.” value is recorded as 0.211 mPa · S, the “Surface Tension @ 20° C.” value was 8.09 mN/m and the “Vapor Pressure @ 20° C.” value is on record as 570 kPa. In data set [4], the “Latent Heat @ 25° C.” value is 177.7 kJ/kg and the “Latent Heat @ Boiling Point” value is 216.7 kJ/kg. Further, the “Water Solubility in Propellant” value in data set [4] (@25) was 1100@25 ppm.
`FC(C(F)(F)F)C(F)(F)F` [HFA-227ea, 1,1,1,2,3,3,3-Heptafluoropropane]: in data set [4], the “Liquid Density @ 20° C.” value is reported as 1.41 g/mL, the “Liquid Viscosity @ 20° C.” value was 0.267 mPa · S, the “Surface Tension @ 20° C.” value is listed as 7.50 mN/m and the “Vapor Pressure @ 20° C.” value is recorded as 390 kPa. In data set [4], the “Latent Heat @ 25° C.” value was 110.97 kJ/kg and the “Latent Heat @ Boiling Point” value was 131.4 kJ/kg. For the same compound, the “Water Solubility in Propellant” value in data set [4] (@25) was 610@25 ppm.
As to `CC(F)F` [HFC-152a, 1,1-Difluoroethane], in data set [4], the “Liquid Density @ 20° C.” value was 0.91 g/mL, the “Liquid Viscosity @ 20° C.” value is 0.171 mPa · S, the “Surface Tension @ 20° C.” value was 10.4 mN/m and the “Vapor Pressure @ 20° C.” value is given as 510 kPa. Besides, in data set [4], the “Latent Heat @ 25° C.” value is 279.1 kJ/kg and the “Latent Heat @ Boiling Point” value is recorded as 318.4 kJ/kg. The “Water Solubility in Propellant” value in data set [4] (@25) is listed as 2100@25 ppm.
For the compound `C=C(F)C(F)(F)F` [HFO-1234yf, 2,3,3,3-Tetrafluoropropene], in data set [4], the “Liquid Density @ 20° C.” value is recorded as 1.11 g/mL, the “Liquid Viscosity @ 20° C.” value is 0.164 mPa · S, the “Surface Tension @ 20° C.” value is 6.8 mN/m and the “Vapor Pressure @ 20° C.” value was 592 kPa. For the same compound, in data set [4], the “Latent Heat @ 25° C.” value is 145.4 kJ/kg and the “Latent Heat @ Boiling Point” value is 180.5 kJ/kg. In data set [4] (@24), the “Water Solubility in Propellant” value is reported as 200@24 ppm.
For the compound `FC=CC(F)(F)F` [HFO-1234ze], in data set [4], the “Liquid Density @ 20° C.” value was 1.18 g/mL, the “Liquid Viscosity @ 20° C.” value is listed as 0.206 mPa · S, the “Surface Tension @ 20° C.” value is given as 8.9 mN/m and the “Vapor Pressure @ 20° C.” value is 427 kPa. In addition, in data set [4], the “Latent Heat @ 25° C.” value is 166.8 kJ/kg and the “Latent Heat @ Boiling Point” value is on record as 195.43 kJ/kg. The “Water Solubility in Propellant” value in data set [4] (@20) was 225@20 ppm.
